Results on three molecules are retold here after US20250064990A1, “METHODS OF SCREENING FOR VMAT2 INHIBITORS” (Neurocrine Biosciences, Inc., priority 2021, published 2025).

Several values for one entry are separate records, joined by “and”; a condition that tells them apart may be missing. Equal values may be shown once. Read-outs that look alike come from different tables or passages of the source.

A short description of data set [1]: NBI-98782 concentration in cynomolgus monkey plasma by LC-MS/MS. Type of data set: in vivo, cynomolgus monkeys (Macaca fascicularis). As to the method: During each scan, whole blood PK samples were collected (in K2 EDTA tubes) at pre-dose (−5 min), and post-dose at 4 (approximately 1 min after completion of bolus), 30, 60 (just prior to [^18F]AV-133 radiopharmaceutical administration), 90, 120, 150, 180 (end of scan) minutes after test article administration. PK samples were approximately 1 mL each (8 mL total, including pre-dose sample).
Plasma samples were processed using liquid-liquid extraction with the additional of a stable isotopic labeled internal standard ^13C-83198. Processed samples were chromatographically separated on a C18 reversed phase column and coupled to a Sciex API 4000 triple quadrupole mass spectrometer for detection.
Quantitation was performed using a weighted 1/×2 linear least squares regression analysis generated from calibration standards prepared on the day of extraction. The liquid-liquid extraction began with the addition of internal standard solution (10.0 μL of approximately 400 ng/mL of [^13C]-radiolabeled [^13C]-NBI-98854 (i.e., [^13C]-valbenazine) and [^13C]-NBI-83198 (a racemic mixture of two dihydrotetrabenazine enantiomers). After adding 50.0 μL of sodium carbonate solution (0.2 M) and 2.00 mL of methyl tert-butyl ether to all samples, the tubes were sealed, vortexed, and centrifuged. Subsequently, the organic layer was transferred to clean tubes and evaporated to dryness. The samples were then reconstituted with 150 μL of reconstitution solution (water/methanol/acetic acid; 80:20:0.2), sealed, vortexed, sonicated and centrifuged. The reconstituted extract was then transferred into a 96-well plate. […] A triple quadrupole mass spectrometer (Sciex API 4000) equipped with TurboIonSpray source was used in the positive ion mode.

Data set [2] addresses VMAT2 (Macaca fascicularis, UniProt A0A2K5UVB8). Briefly: VMAT2 occupancy in NHP brain after i.v. NBI-98782, [^18F]AV-133 PET. The data set is classed as in vivo, cynomolgus monkeys (Macaca fascicularis). As to conditions: cynomolgus monkey. The text has this:
A radioligand, [^18F]AV-133, has been used to image and quantify brain VMAT2 in vivo.
Two female non-naïve cynomolgus monkeys (Macaca fascicularis) were used in this study. The animals were judged to be in good health before the start of the study. At study origination, animals A7701 (Tag ID A5028) and A7702 (Tag ID A5029) were 4.45 kg/4 years 11 months and 4.75 kg/3 years 10 months, respectively.
Dynamic data were acquired in the MicroPET Focus-220 camera (Siemens Microsystems, Knoxville, TN). Emission data were collected for 120 min post-injection and reconstructed into a series of 33 frames and all standard corrections were applied: normalization, random, scatter and attenuation (via CT scan). Dynamic brain PET images were transferred and analyzed using the image processing PMOD software package v3.802 (PMOD Technologies, Zurich, Switzerland). The PET images were rigidly aligned to a previously acquired animal's brain T1 MRI and then spatially normalized to a common cynomolgus MRI template for anatomical brain region definition.
Volumes of interest (VOIs) defined in the cynomolgus template space (see e.g., Ballanger et al. Neuroimage, 2013, 77:26-43) were applied to the spatially normalized PET images to compute time-activity curves (TACs, kBq/cm^3) for caudate (0.96 cm^3), putamen (1.34 cm^3) and occipital (8.61 cm^3). TACs and images (averaged between 90-120 min) were presented in Standard Uptake Value (SUV) units (g/mL) normalized by the weight of the animal and the injected dose
Non-invasive Logan graphical analysis (start time of fit, t*=30 min) was used to estimate regional non-displaceable binding potential (BPND) using the TACs in the caudate and putamen, with the cerebellar cortex as the reference TAC. […] Target occupancy was calculated according to the Equation 2-1.
where h is the Hill slope (h=1.0) and C is the mean of observed plasma concentrations during the scanning interval (60 to 180 minutes post-dose).

Data set [3] concerns the target T1, VMAT2 (Homo sapiens, UniProt Q05940). Particulars: Freeby et al., Mol. Imaging Biol. 2016; cited from earlier work.
The subject of another data set is synaptic dopamine. Briefly: Valbenazine effects on the dopamine system, [^11C]-PHNO PET. The data set is classed as in vivo, human. As to conditions: 40-160 mg oral valbenazine, healthy volunteers, interim analysis, eight participants. The source says:
By way of example only, in some embodiments, “synaptic dopamine” can be measured non-invasively as follows. Subjects receive an oral dose of a VMAT2 inhibitor before administration of [^11C]-PHNO, with PET imaging occurring around the time of maximal VMAT2 inhibitor plasma concentration. The binding potential relative to the non-displaceable binding (BPND) in the putamen, caudate, and ventral striatum, is used as the primary endpoint. The cerebellum is used as the reference region to estimate the regional BPND. The measured increases in [^11C]-PHNO BPND relative to baseline (ΔBPND) correspond to decreases in synaptic dopamine following VMAT2 inhibitor administration. Other radioligands can be used. Alternatively, in some embodiments, indirect measurements of synaptic dopamine can be achieved via invasive techniques such as methods described in Huang M., et al., Pharmacology, Biochemistry and Behavior 190 (2020) 172872; and Bosche S. L., et al., Frontiers in Neuroscience, November 2021|Volume 15|Article 728092.
Interim imaging and tolerability data in an ongoing study were collected and analyzed in cohorts of 2-4 healthy volunteers. […] Plasma concentrations of valbenazine and (+)-α-dTBZ (dihydrotetrabenazine), the active metabolite of valbenazine, were measured at the start and end of each post-valbenazine PET scan. […]

Data set [4] relates to VMAT2. In words: Estimated VMAT2 target occupancy and clinical observations in cynomolgus monkey. The data set is classed as in vivo. As to conditions: ~30 min to 1 h post-dosing, at estimated 96%-98% VMAT2 target occupancy. The text has this: As described below, there were adverse events at these doses, enabling a benchmarking of % TO values that could lead to adverse events.

Data set [5] can be described thus: Adverse events in healthy volunteers receiving valbenazine. The data set is classed as in vivo, human. Particulars: 40-160 mg valbenazine. The procedure:
Interim imaging and tolerability data in an ongoing study were collected and analyzed in cohorts of 2-4 healthy volunteers. For each scan, participants received an injection of the D2/D3 dopamine receptor agonist radioligand [^11C](+)4-propyl-3,4,4a,5,6,10b-hexahydro-2H-naphtho[1,2-b][1,4]oxazin-9-ol ([^11C]-PHNO), followed by 90 min of data acquisition using Siemens Biograph PET/CT. For post-valbenazine scans, participants received an oral dose of valbenazine 6-8 hours before the administration of [^11C]-PHNO, with PET imaging occurring around the time of maximal valbenazine plasma concentration. The binding potential relative to the non-displaceable binding (BPND) in the putamen, caudate, and ventral striatum, was used as the primary endpoint. The cerebellum was used as the reference region to estimate the regional BPND. Decreases in synaptic dopamine following valbenazine administration corresponded to an increase in [^11C]-PHNO BPND relative to baseline (ΔBPND). Plasma concentrations of valbenazine and (+)-α-dTBZ (dihydrotetrabenazine), the active metabolite of valbenazine, were measured at the start and end of each post-valbenazine PET scan. The mean plasma (+)-α-dTBZ concentration (Cave) was matched to the ΔBPND for each participant to provide an exposure-response curve.

For data set [6], the target named is T1, VMAT2. In words: Estimated VMAT2 target occupancy in humans for valbenazine from NHP PET free EC50 and human PK. Type of data set: in vivo. Also on record: The free EC50 derived from NHP PET was then used to estimate % TO in humans; from tissue; host or cells: human brain in vivo (modelled, not imaged).

Chain of VMAT2 (Macaca fascicularis, UniProt A0A2K5UVB8) (A0A2K5UVB8 entry or part of it): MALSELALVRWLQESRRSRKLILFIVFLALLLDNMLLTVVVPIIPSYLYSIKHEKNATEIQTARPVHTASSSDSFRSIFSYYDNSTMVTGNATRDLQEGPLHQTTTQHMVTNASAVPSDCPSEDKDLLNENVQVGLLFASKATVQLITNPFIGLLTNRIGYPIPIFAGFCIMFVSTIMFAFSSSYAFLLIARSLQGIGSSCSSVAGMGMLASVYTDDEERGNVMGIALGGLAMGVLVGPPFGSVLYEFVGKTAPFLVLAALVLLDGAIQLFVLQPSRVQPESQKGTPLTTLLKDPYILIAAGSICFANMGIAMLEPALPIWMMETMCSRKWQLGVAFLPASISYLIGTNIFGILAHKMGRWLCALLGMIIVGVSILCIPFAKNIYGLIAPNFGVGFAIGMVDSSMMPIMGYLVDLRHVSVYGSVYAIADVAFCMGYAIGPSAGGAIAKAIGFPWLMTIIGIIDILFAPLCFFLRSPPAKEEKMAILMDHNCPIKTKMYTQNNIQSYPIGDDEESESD
T1 sequence (Q05940 whole entry): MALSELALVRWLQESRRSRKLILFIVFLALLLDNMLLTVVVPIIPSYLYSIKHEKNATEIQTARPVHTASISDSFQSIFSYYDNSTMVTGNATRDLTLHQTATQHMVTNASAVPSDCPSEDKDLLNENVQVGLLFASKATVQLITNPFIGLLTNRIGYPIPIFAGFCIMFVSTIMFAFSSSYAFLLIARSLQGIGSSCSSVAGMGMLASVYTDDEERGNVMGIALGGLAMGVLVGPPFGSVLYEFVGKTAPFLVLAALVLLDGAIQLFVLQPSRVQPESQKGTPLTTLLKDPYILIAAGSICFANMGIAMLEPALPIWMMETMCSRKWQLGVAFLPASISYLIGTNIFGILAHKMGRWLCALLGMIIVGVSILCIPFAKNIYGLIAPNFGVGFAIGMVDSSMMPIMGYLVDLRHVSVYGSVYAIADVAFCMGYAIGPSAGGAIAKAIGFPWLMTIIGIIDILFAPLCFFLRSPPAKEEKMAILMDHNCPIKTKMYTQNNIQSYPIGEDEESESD

Regarding `COc1cc2c(cc1OC)[C@H]1C[C@@H](O)[C@H](CC(C)C)CN1CC2` [NBI-98782, (2R, 3R,11bR)-3-isobutyl-9,10-dimethoxy-1,3,4,6,7,11b-hexahydro-2H-pyrido[2,1-a]isoquinolin-2-ol], the “Mean ng/mL NBI-98782 Concentration during PET Scan (60-180 min)” value is given as 2.9 ng/mL in data set [1] (A7701, total mass dose 0.04 mg/kg i.v.); 44.5 ng/mL in data set [1] (A7701, total mass dose 0.5 mg/kg i.v.); 1.7 ng/mL in data set [1] (A7702, total mass dose 0.016 mg/kg i.v.); 14.9 ng/mL in data set [1] (A7702, total mass dose 0.13 mg/kg i.v.). Also, the receptor occupancy at 0.04 mg/kg on VMAT2 [2] (iv, read-out: % Occ, animal A7701, Caudate, 0.04 mg/kg) was determined as 59.1%; on VMAT2 [2] (iv, read-out: % Occ, animal A7701, Putamen, 0.04 mg/kg), 55.2%; on VMAT2 [2] (read-out: Target Occupancy, Mean of Putamen and Caudate, A7701, total mass dose 0.04 mg/kg), 57%. For the same molecule, the receptor occupancy at 0.13 mg/kg at VMAT2 [2] (iv, read-out: % Occ, animal A7701, Caudate, 0.13 mg/kg) came out at 67.9%; on VMAT2 [2] (iv, read-out: % Occ, animal A7701, Putamen, 0.13 mg/kg) it was 70.8%; on VMAT2 [2] (iv, read-out: Occ, animal A7702, Caudate, 0.13 mg/kg) it was 77.5%; on VMAT2 [2] (iv, read-out: Occ, animal A7702, Putamen, 0.13 mg/kg), 79.1%; on VMAT2 [2] (read-out: Target Occupancy, Mean of Putamen and Caudate, A7701, total mass dose 0.13 mg/kg), 69%; on VMAT2 [2] (read-out: Target Occupancy, Mean of Putamen and Caudate, A7702, total mass dose 0.13 mg/kg), 78%. In addition, the receptor occupancy at 0.5 mg/kg at VMAT2 [2] (iv, read-out: % Occ, animal A7701, Caudate, 0.5 mg/kg) was 89.4%; on VMAT2 [2] (iv, read-out: % Occ, animal A7701, Putamen, 0.5 mg/kg), 89.6%; on VMAT2 [2] (read-out: Target Occupancy, Mean of Putamen and Caudate, A7701, total mass dose 0.5 mg/kg), 90%. The receptor occupancy at 0.016 mg/kg on VMAT2 [2] (iv, read-out: % Occ, animal A7702, Caudate, 0.016 mg/kg) was 18.7%; at VMAT2 [2] (iv, read-out: % Occ, animal A7702, Putamen, 0.016 mg/kg), 18.3%; at VMAT2 [2] (read-out: Target Occupancy, Mean of Putamen and Caudate, A7702, total mass dose 0.016 mg/kg), 19%.

For the molecule `COc1cc2c(cc1OCCC[18F])CCN1C[C@@H](CC(C)C)[C@H](O)C[C@H]21` [[^18F]AV-133], on VMAT2 [3], the “Test-retest for BPND” value is reported as 9.4%.

In the case of `COc1cc2c(cc1OC)[C@H]1C[C@@H](OC(=O)[C@@H](N)C(C)C)[C@H](CC(C)C)CN1CC2` [valbenazine, (S)-2-amino-3-methyl-butyric acid (2R, 3R,11bR)-3-isobutyl-9,10-dimethoxy-1,3,4,6,7,11b-hexahydro-2H-pyrido[2,1-a]isoquinolin-2-yl ester], the “increase in [^11C]-PHNO ΔBPND” value in the data set on synaptic dopamine is 21-44% and 20-40%. In the data set on VMAT2 [4], the clinical observations entry was “partially closed eyes (ptosis) (in all monkeys), decreased activity (in ⅔ monkeys), and salivation (in 1 monkey)”. Further, the Adverse events result in data set [5] was “consistent with the known safety and tolerability profile of valbenazine”. At VMAT2 [6] (doses clinically effective in tardive dyskinesia), the “estimated VMAT2 occupancy maintained throughout each 24-hour period” value is no less than 73%. Moreover, the receptor occupancy at 40 mg on VMAT2 [6] (valbenazine 40 mg once-daily, read-out: estimated target occupancy for Cave) was roughly 80%.
